“And” between values parts separate entries of the source, which are not always exact repeats. Equal entries are not always repeated. Toxic doses and inconclusive results are not listed.
Test system: CD2F1 mice, L1210 leukemia ip, survival T/C
Experiment: NCI In Vivo Anticancer Drug Screen. Data for tumor model L1210 Leukemia (intraperitoneal) in CD2F1 (CDF1) mice
Details: higher = longer survival
In short: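 Mice carrying a transplanted tumor received test compound or vehicle alone. The value is the measurement in the treated group divided by that in the vehicle-treated control group.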

[1] = endpoint: mean survival time, dose: 100.0 mg/kg/injection, schedule: Q01DX009 (ip), vehicle: saline with Tween-80
[2] = endpoint: mean survival time, dose: 100.0 mg/kg/injection, schedule: Q04DX003 (ip), vehicle: saline with Tween-80
[3] = endpoint: mean survival time, dose: 200.0 mg/kg/injection, schedule: Q01DX009 (ip), vehicle: saline with Tween-80
[4] = endpoint: mean survival time, dose: 200.0 mg/kg/injection, schedule: Q04DX003 (ip), vehicle: saline with Tween-80
[5] = endpoint: mean survival time, dose: 400.0 mg/kg/injection, schedule: Q04DX003 (ip), vehicle: saline with Tween-80
[6] = endpoint: mean survival time, dose: 100.0 mg/kg/injection, schedule: Q01DX001 (ip), vehicle: saline with Tween-80
[7] = endpoint: mean survival time, dose: 400.0 mg/kg/injection, schedule: Q01DX001 (ip), vehicle: saline with Tween-80
[8] = endpoint: mean survival time, dose: 100.0 mg/kg/injection, schedule: Q01DX009 (ip), vehicle: Klucel (hydroxypropylcellulose) (HPC)
[9] = endpoint: mean survival time, dose: 200.0 mg/kg/injection, schedule: Q01DX009 (ip), vehicle: Klucel (hydroxypropylcellulose) (HPC)

CC(C)(C)C1CCC(OC(=O)c2ccccc2C(=O)O)CC1 (configuration not stated)
T/C [1]: 100 % of control
T/C [2]: 100 % of control
T/C [3]: 97 % of control
T/C [4]: 98 % of control
T/C (endpoint: mean survival time, dose: 400.0 mg/kg/injection, schedule: Q01DX009 (ip), vehicle: saline with Tween-80): 89 % of control
T/C [5]: 96 % of control

CN(N=C(C1CC1)C1CC1)c1ccccc1
T/C [6]: 100 % of control
T/C (endpoint: mean survival time, dose: 200.0 mg/kg/injection, schedule: Q01DX001 (ip), vehicle: saline with Tween-80): 107 % of control
T/C [7]: 105 % of control

CS(=O)(=O)OCC(/C=C/C(COS(C)(=O)=O)OS(C)(=O)=O)OS(C)(=O)=O (configuration not stated)
T/C [8]: 150 % of control
T/C [9]: 175 % of control

CC(Cl)S(=O)(=O)c1ccccc1 (configuration not stated)
T/C (endpoint: mean survival time, dose: 100.0 mg/kg/injection, schedule: Q04DX002 (ip), vehicle: saline with Tween-80): 104 % of control
T/C (endpoint: mean survival time, dose: 200.0 mg/kg/injection, schedule: Q04DX002 (ip), vehicle: saline with Tween-80): 96 % of control
T/C (endpoint: mean survival time, dose: 400.0 mg/kg/injection, schedule: Q04DX002 (ip), vehicle: saline with Tween-80): 96 % of control

O=C(O)CCCC1CCc2ccccc2C1 (configuration not stated)
T/C [8]: 96 % of control
T/C [9]: 102 % of control
T/C (endpoint: mean survival time, dose: 400.0 mg/kg/injection, schedule: Q01DX009 (ip), vehicle: Klucel (hydroxypropylcellulose) (HPC)): 97 % of control

Clc1ccc(/C(=C(\Br)c2ccccc2)c2ccccc2)cc1
T/C [2]: 102 % of control and 100 % of control
T/C [4]: 100 % of control and 102 % of control
T/C [5]: 96 % of control and 94 % of control

O=C1OC2CCCCC2c2ccccc21 (configuration not stated)
T/C [2]: 98 % of control
T/C [4]: 96 % of control
T/C [5]: 98 % of control

Cc1[nH]c(=S)[nH]c(=O)c1Cc1c(O)ccc2ccccc12
T/C (endpoint: mean survival time, dose: 100.0 mg/kg/injection, schedule: Q01DX001 (ip), vehicle: saline): 97 % of control
T/C (endpoint: mean survival time, dose: 200.0 mg/kg/injection, schedule: Q01DX001 (ip), vehicle: saline): 100 % of control
T/C (endpoint: mean survival time, dose: 400.0 mg/kg/injection, schedule: Q01DX001 (ip), vehicle: saline): 103 % of control

Nc1nc(N)c2cc(S(=O)(=O)c3ccccc3)ccc2n1
T/C (endpoint: median survival time, dose: 25.0 mg/kg/injection, schedule: Q01DX009 (ip), vehicle: saline with Tween-80): 98 % of control
T/C (endpoint: median survival time, dose: 50.0 mg/kg/injection, schedule: Q01DX009 (ip), vehicle: saline with Tween-80): 100 % of control
T/C (endpoint: median survival time, dose: 100.0 mg/kg/injection, schedule: Q01DX009 (ip), vehicle: saline with Tween-80): 102 % of control
T/C (endpoint: median survival time, dose: 200.0 mg/kg/injection, schedule: Q01DX009 (ip), vehicle: saline with Tween-80): 121 % of control

CSc1nc(=O)[nH]nc1SCc1ccccc1
T/C (endpoint: mean survival time, dose: 100.0 mg/kg/injection, schedule: Q01DX001 (ip), vehicle: carboxymethylcellulose (CMC)): 100 % of control
T/C (endpoint: mean survival time, dose: 200.0 mg/kg/injection, schedule: Q01DX001 (ip), vehicle: carboxymethylcellulose (CMC)): 91 % of control
T/C (endpoint: mean survival time, dose: 400.0 mg/kg/injection, schedule: Q01DX001 (ip), vehicle: carboxymethylcellulose (CMC)): 89 % of control

ClC1C2c3ccccc3C(C1Cl)[n+]1ccccc12 (configuration not stated)
T/C (endpoint: mean survival time, dose: 12.5 mg/kg/injection, schedule: Q04DX003 (ip), vehicle: Klucel (hydroxypropylcellulose) (HPC)): 93 % of control
T/C (endpoint: mean survival time, dose: 25.0 mg/kg/injection, schedule: Q04DX003 (ip), vehicle: Klucel (hydroxypropylcellulose) (HPC)): 98 % of control

CCc1ccc(-n2cnc3c(=O)[nH]c(N)nc32)cc1
T/C [6]: 87 % of control
T/C [7]: 93 % of control

O=C(CCl)Nc1cccc2c1CCCC2
T/C (endpoint: mean survival time, dose: 50.0 mg/kg/injection, schedule: Q01DX009 (ip), vehicle: saline with Tween-80): 97 % of control
T/C [1]: 94 % of control
T/C [2]: 98 % of control
T/C [3]: 91 % of control
T/C [4]: 96 % of control
